Columns and labels:
Test in all cases: scanMAX Kinase panel (DiscoverX), % control
Type in all cases: binding
Conditions in all cases: <35% = active
LRRK2 (G2019S) = LRRK2 (G2019S) (Homo sapiens, UniProt Q5S007, G2019S); set-up: purchased DiscoverX
Method: (§1) Specifically, for Examples 162, 160, 105, 217, 205, 96, 207, 184, 206, 221, 238, and 237 selected among the example compounds of the present invention, it was decided to measure enzyme (kinase) selectivity by DiscoverX, and the experiment was conducted using a panel for scanMAX™ Kinase analysis. At this time, the concentration of the drug treated with the enzyme was 1 uM in DMSO, the control percentage (% control) was determined in the same way as in Equation 1 below, and the results were shown in Table 6 below. [formula] Here, the positive control refers to a compound showing a control percentage of 0%, and the negative control is DMSO, indicating a control percentage of 100%. Also, in the enzyme selectivity of the present invention, if the control percentage for each enzyme was <35% (i.e., less than 35%), it was determined to have activity against the relevant enzyme.

TTK = molecular target: T1, TTK (Homo sapiens, UniProt P33981); set-up: purchased DiscoverX
T1 sequence (P33981 1-857): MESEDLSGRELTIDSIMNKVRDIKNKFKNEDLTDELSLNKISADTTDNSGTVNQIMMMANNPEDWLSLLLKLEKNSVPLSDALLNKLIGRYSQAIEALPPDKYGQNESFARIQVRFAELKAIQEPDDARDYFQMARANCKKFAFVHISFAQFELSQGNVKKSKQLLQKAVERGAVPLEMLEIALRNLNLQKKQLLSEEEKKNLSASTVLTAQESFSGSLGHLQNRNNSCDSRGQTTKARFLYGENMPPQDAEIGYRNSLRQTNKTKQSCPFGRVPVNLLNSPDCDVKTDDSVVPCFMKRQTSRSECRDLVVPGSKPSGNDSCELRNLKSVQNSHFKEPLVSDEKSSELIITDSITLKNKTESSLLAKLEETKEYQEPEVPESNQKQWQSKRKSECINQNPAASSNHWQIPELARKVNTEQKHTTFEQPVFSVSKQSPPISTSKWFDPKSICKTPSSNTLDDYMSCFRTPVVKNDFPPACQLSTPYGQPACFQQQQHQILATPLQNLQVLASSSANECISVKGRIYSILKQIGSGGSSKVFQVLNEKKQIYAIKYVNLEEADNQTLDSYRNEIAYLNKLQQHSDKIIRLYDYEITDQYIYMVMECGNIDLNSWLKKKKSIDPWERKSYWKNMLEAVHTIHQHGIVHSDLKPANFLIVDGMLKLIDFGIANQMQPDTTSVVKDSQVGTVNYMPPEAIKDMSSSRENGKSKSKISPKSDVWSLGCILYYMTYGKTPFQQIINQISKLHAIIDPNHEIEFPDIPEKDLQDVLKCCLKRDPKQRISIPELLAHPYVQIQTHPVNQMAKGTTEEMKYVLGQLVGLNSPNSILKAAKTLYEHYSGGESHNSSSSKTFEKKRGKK
Method: as §1

LRRK2 = LRRK2 (Homo sapiens, UniProt Q5S007); set-up: purchased DiscoverX
Method: as §1

GAK = molecular target: T2, GAK (Homo sapiens, UniProt O14976)
T2 construct: purchased DiscoverX
T2 sequence (O14976 1-1311): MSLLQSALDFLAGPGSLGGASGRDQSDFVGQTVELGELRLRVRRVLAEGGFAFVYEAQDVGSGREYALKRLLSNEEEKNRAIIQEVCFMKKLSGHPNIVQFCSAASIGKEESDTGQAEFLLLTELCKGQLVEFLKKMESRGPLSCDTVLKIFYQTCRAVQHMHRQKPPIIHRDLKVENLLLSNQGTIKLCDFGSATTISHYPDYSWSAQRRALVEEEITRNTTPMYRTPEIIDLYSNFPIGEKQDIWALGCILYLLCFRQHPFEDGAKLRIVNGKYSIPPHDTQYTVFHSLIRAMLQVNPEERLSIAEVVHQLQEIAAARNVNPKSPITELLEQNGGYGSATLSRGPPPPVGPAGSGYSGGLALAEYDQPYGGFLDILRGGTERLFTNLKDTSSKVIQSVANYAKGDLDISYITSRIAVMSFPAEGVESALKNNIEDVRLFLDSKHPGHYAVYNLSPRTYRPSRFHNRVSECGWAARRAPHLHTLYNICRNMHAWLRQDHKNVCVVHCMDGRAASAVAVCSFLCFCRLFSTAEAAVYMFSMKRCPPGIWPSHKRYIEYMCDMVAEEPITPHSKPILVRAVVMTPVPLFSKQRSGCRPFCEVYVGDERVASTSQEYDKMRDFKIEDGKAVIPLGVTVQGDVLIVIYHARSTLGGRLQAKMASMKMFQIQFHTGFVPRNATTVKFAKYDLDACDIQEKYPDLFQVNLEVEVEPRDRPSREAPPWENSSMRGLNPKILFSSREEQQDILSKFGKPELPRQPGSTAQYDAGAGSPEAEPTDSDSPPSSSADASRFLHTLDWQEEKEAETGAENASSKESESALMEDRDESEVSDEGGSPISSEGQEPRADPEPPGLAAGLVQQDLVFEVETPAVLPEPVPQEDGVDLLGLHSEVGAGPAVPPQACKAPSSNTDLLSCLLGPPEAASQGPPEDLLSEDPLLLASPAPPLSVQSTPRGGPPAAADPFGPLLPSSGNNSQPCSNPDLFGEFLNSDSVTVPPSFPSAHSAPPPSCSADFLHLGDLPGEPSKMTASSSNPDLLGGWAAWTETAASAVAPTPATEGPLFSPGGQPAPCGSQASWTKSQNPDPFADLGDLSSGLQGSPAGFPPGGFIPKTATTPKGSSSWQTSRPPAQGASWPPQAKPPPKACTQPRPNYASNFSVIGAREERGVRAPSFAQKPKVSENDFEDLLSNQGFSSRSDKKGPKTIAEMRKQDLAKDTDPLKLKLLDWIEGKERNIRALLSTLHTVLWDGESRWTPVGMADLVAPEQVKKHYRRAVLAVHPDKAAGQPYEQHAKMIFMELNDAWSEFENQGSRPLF
Method: as §1

ALK = molecular target: T3, ALK (Homo sapiens, UniProt Q9UM73)
T3 construct: purchased DiscoverX
Method: as §1

T3 sequence (Q9UM73 19-1620): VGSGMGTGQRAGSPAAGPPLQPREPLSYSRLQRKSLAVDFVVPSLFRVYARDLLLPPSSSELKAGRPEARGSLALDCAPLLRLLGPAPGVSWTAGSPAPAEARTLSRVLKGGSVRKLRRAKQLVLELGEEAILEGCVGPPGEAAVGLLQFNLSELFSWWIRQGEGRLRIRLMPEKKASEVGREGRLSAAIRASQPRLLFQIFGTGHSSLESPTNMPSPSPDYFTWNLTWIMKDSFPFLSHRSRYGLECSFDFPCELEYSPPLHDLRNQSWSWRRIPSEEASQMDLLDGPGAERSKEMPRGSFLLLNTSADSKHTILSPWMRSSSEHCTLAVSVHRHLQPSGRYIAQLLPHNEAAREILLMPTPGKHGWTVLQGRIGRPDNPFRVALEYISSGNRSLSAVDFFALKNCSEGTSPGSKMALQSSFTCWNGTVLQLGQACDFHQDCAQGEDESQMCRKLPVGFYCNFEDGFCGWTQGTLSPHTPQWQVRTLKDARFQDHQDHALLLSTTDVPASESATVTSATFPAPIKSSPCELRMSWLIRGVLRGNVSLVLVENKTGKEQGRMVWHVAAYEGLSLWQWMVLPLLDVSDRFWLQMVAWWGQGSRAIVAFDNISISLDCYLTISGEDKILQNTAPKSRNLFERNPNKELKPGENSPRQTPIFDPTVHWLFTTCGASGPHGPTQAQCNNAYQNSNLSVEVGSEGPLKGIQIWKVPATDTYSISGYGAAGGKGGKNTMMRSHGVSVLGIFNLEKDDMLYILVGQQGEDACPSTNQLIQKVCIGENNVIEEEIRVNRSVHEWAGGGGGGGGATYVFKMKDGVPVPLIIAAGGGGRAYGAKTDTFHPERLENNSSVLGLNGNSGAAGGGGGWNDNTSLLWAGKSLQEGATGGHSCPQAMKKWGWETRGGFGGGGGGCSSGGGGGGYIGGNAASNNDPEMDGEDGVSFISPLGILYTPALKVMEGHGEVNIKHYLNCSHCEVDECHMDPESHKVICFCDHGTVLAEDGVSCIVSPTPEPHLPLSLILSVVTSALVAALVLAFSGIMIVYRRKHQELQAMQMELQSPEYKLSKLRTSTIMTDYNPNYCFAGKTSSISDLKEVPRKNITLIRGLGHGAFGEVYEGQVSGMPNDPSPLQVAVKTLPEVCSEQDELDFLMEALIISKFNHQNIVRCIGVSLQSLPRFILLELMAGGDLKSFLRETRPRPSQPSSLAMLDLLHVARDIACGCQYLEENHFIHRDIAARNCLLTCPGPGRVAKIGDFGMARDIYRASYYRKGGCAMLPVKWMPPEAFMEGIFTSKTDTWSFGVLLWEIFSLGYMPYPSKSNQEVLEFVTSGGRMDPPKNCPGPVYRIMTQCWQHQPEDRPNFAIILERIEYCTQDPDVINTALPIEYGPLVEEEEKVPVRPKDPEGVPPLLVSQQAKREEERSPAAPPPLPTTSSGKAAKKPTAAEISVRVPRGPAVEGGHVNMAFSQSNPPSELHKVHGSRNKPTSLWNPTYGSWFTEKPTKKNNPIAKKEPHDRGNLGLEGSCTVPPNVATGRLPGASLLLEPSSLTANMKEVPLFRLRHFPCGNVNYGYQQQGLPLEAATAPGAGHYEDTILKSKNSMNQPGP
Sequence of LRRK2 (G2019S) (Q5S007 whole entry G2019S): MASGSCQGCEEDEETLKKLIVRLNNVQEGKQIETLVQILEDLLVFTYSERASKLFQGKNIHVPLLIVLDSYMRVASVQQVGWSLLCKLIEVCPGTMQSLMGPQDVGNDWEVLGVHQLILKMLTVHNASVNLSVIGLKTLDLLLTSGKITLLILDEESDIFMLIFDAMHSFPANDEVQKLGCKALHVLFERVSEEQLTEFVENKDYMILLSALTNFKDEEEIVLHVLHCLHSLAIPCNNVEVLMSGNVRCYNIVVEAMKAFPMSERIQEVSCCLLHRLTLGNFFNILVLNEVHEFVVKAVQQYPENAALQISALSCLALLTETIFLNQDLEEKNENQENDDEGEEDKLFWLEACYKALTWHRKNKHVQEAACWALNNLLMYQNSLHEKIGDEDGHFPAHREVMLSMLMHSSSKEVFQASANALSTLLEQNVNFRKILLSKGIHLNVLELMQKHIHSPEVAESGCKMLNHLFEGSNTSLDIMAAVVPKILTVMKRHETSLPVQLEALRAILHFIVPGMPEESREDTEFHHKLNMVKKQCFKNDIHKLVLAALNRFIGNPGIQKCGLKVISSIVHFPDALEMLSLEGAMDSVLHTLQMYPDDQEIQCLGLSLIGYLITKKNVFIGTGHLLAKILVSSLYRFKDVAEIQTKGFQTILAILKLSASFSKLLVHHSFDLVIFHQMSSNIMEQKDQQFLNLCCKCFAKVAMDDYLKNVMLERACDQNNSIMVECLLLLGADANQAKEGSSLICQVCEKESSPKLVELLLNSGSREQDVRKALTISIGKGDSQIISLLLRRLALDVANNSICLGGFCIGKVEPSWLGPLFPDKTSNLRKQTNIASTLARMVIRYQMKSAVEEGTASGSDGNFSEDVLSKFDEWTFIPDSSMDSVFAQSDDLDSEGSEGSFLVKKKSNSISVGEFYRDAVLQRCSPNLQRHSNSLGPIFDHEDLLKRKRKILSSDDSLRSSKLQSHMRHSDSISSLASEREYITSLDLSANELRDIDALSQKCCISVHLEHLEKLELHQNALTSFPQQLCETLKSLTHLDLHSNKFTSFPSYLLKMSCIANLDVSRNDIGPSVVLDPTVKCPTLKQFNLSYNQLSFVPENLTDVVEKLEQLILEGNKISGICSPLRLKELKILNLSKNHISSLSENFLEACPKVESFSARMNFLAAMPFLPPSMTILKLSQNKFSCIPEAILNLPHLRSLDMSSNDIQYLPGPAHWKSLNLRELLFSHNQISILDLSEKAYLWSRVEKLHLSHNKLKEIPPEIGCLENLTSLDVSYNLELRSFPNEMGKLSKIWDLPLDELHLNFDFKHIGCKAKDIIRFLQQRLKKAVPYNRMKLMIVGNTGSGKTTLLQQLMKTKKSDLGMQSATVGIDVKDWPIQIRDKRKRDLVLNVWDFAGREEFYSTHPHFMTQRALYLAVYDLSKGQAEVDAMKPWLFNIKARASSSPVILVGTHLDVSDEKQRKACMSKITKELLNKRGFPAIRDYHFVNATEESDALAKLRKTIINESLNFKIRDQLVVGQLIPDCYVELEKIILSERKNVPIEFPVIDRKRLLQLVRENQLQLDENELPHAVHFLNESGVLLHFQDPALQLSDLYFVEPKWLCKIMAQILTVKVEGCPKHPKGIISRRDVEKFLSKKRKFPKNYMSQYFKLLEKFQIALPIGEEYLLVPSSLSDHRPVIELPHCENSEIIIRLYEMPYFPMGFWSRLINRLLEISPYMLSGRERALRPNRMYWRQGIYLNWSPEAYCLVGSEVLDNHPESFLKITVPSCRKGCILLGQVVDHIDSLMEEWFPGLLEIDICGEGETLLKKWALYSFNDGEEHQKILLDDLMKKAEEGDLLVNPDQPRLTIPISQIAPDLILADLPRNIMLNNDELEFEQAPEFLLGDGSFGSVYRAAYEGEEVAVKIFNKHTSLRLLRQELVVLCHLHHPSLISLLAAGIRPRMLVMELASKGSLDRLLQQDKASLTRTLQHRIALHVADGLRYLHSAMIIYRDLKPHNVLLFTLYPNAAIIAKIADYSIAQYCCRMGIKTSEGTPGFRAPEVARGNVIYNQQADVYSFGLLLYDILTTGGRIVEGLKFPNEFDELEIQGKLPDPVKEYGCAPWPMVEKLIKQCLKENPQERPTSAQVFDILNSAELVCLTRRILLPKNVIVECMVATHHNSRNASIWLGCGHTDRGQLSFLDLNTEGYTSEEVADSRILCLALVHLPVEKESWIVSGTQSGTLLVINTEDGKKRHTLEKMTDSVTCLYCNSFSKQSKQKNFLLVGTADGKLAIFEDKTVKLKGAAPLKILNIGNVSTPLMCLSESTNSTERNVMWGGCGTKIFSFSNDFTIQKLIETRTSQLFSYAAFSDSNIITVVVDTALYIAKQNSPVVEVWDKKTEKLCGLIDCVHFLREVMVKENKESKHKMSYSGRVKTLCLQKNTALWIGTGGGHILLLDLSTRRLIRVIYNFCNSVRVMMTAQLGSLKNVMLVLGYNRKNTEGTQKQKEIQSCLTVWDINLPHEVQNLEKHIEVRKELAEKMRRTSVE
Sequence of LRRK2 (Q5S007 whole entry): as the sequence (Q5S007 whole entry G2019S) above, with S2019G counted along it

| Compound | remaining binding at 1 µM (LRRK2 (G2019S)) | remaining binding at 1 µM (TTK) | remaining binding at 1 µM (LRRK2) | remaining binding at 1 µM (GAK) | remaining binding at 1 µM (ALK) |
| --- | --- | --- | --- | --- | --- |
| CCNc1cc(Nc2ccc(P3(=O)CCN(C4CC4)CC3)cc2OC)nc2[nH]cc(C(F)(F)F)c12 [Example 206, 1-cyclopropyl-4-(4-((4-(ethylamino)-3-(trifluoromethyl)-1H-pyrrolo[2,3-b]pyridin-6-yl)amino)-3-methoxyphenyl)-1,4-azaphosphinane 4-oxide] | 28% | 0.65% | 23% | 29% | 9% |
| O=C(c1ccc(Nc2cc(C3CC3)c3c(C(F)(F)F)c[nH]c3n2)c2c1CCO2)N1CC[C@@H](N2CCOCC2)C1 [Example 238, (R)-(7-((4-cyclopropyl-3-(trifluoromethyl)-1H-pyrrolo[2,3-b]pyridin-6-yl)amino)-2,3-dihydrobenzofuran-4-yl)(3-morpholinopyrrolidin-1-yl)methanone] | 38% | 4.1% | 48% | 27% | 67% |
| COCCNc1cc(Nc2ccc(P3(=O)CCN(C4CC4)CC3)cc2OC)nc2[nH]cc(C(F)(F)F)c12 [Example 207, 1-cyclopropyl-4-(3-methoxy-4-((4-((2-methoxyethyl)amino)-3-(trifluoromethyl)-1H-pyrrolo[2,3-b]pyridin-6-yl)amino)phenyl)-1,4-azaphosphinane 4-oxide] | 16% | 4.8% | 20% | 38% | 5.9% |
| CCNc1cc(Nc2ccc(S(=O)(=O)N3CCC(N4CCOCC4)CC3)c3c2OCCO3)nc2[nH]cc(C(F)(F)F)c12 [Example 96, N^4-ethyl-N^6-(8-((4-morpholonopiperidin-1-yl)sulfonyl)-2,3-dihydrobenzo [b] [1,4]dioxin-5-yl)-3-(trifluoromethyl)-1H-pyrrolo[2,3-b]pyridine-4,6-diamine] | 1.9% | 2.7% | 4.5% | 14% | 9.5% |
| CNc1cc(Nc2ccc(C(=O)N3CCC(N4CCOCC4)CC3)c3c2OCCO3)nc2[nH]cc(C(F)(F)F)c12 [Example 160, (8-((4-(methylamino)-3-(trifluoromethyl)-1H-pyrrolo[2,3-b]pyridin-6-yl)amino)-2,3-dihydrobenzo [b] [1,4]dioxin-5-yl)(4-morpholinopiperidin-1-yl)methanone] | 0.35% | 3.4% | 2.8% | 6.3% | 0.65% |
| CNc1cc(Nc2ccc(P3(=O)CCN(C4CC4)CC3)cc2OC)nc2[nH]cc(C(F)(F)F)c12 [Example 205, 1-cyclopropyl-4-(3-methoxy-4-((4-(methylamino)-3-(trifluoromethyl)-1H-pyrrolo[2,3-b]pyridin-6-yl)amino)phenyl)-1,4-azaphosphinane 4-oxide] | 17% | 5.5% | 18% | 12% | 1.4% |
| CCNc1cc(Nc2ccc(C(=O)N3CCC(N4C[C@@H]5C[C@H]4CO5)CC3)c3c2OCC3)nc2[nH]cc(C(F)(F)F)c12 [Example 105, (4-((1S,4S)-2-oxa-5-azabicyclo[2.2.1]heptan-5-yl)piperidin-1-yl)(7-((4-(ethylamino)-3-(trifluoromethyl)-1H-pyrrolo[2,3-b]pyridin-6-yl)amino)-2,3-dihydrobenzofuran-4-yl)methanone] | 0% | 2.6% | 0% | 4.8% | 0.3% |
| CCCNc1cc(Nc2ccc(C(=O)N3CCC(N4CCOCC4)CC3)c3c2OCCO3)nc2[nH]cc(C(F)(F)F)c12 [Example 162, (4-morpholinopiperidin-1-yl)(8-((4-(propylamino)-3-(trifluoromethyl)-1H-pyrrolo[2,3-b]pyridin-6-yl)amino)-2,3-dihydrobenzo[b] [1,4]dioxin-5-yl)methanone] | 0.35% | 3.4% | 2.8% | 6.3% | 0.65% |
| O=C(c1ccc(Nc2cc(C3CC3)c3c(C(F)(F)F)c[nH]c3n2)c2c1CCO2)N1CC[C@H](N2CCOCC2)C1 [Example 237, (S)-(7-((4-cyclopropyl-3-(trifluoromethyl)-1H-pyrrolo[2,3-b]pyridin-6-yl)amino)-2,3-dihydrobenzofuran-4-yl)(3-morpholinopyrrolidin-1-yl)methanone] | 31% | 3.5% | 36% | 15% | 14% |
| CNc1cc(Nc2ccc(C(=O)N3CC[C@H](N4CCOCC4)C3)c3c2OCC3)nc2[nH]cc(C(F)(F)F)c12 [Example 217, (S)-(7-((4-(methylamino)-3-(trifluoromethyl)-1H-pyrrolo[2,3-b]pyridin-6-yl)amino)-2,3-dihydrobenzofuran-4-yl)(3-morpholinopyrrolidin-1-yl)methanone] | 1% | 3% | 1% | 9.9% | 3.8% |
| CNc1cc(Nc2ccc(S(=O)(=O)N3CCC(N4CCOCC4)CC3)cc2OC)nc2[nH]cc(C(F)(F)F)c12 [Example 184, N^6-(2-methoxy-4-((4-morpholinopiperidin-1-yl)sulfonyl)phenyl)-N^4-methyl-3-(trifluoromethyl)-1H-pyrrolo[2,3-b]pyridine-4,6-diamine] | 3.2% | 0.35% | 3.8% | 27% | 15% |

From patent US12240844B2 (Voronoi, Inc., priority 2019, dated 2025)
